The kinase profiling compilation of Christmann-Franck et al. (2016)

Assays:
Experiment in all cases: KINOMEscan competition binding
Settings in all cases: compound 10.0 µM
CASK (human) = CASK (human) (UniProt O14936)
CDK13 (human) = CDK13 (human) (UniProt Q14004)
CHUK (human) = CHUK (human) (UniProt O15111)
CRK2 (P.falciparum) = CRK2 (P.falciparum) (UniProt P61075)
CSNK1E (human) = CSNK1E (human) (UniProt P49674)
CSNK2A1 (human) = CSNK2A1 (human) (UniProt P68400)
EPHB1 (human) = EPHB1 (human) (UniProt P54762)
[1] = tested on: FLT3 (human), P36888 [D835Y]
GRK4 (human) = GRK4 (human) (UniProt P32298)
HIPK1 (human) = HIPK1 (human) (UniProt Q86Z02)
IRAK4 (human) = IRAK4 (human) (UniProt Q9NWZ3)
ITK (human) = ITK (human) (UniProt Q08881)
LRRK2 (human) = LRRK2 (human) (UniProt Q5S007)
LYN (human) = LYN (human) (UniProt P07948)
MAP2K6 (human) = MAP2K6 (human) (UniProt P52564)
MAP3K1 (human) = MAP3K1 (human) (UniProt Q13233)
MAP3K1 (human), sequence (Q13233 whole entry, looked up): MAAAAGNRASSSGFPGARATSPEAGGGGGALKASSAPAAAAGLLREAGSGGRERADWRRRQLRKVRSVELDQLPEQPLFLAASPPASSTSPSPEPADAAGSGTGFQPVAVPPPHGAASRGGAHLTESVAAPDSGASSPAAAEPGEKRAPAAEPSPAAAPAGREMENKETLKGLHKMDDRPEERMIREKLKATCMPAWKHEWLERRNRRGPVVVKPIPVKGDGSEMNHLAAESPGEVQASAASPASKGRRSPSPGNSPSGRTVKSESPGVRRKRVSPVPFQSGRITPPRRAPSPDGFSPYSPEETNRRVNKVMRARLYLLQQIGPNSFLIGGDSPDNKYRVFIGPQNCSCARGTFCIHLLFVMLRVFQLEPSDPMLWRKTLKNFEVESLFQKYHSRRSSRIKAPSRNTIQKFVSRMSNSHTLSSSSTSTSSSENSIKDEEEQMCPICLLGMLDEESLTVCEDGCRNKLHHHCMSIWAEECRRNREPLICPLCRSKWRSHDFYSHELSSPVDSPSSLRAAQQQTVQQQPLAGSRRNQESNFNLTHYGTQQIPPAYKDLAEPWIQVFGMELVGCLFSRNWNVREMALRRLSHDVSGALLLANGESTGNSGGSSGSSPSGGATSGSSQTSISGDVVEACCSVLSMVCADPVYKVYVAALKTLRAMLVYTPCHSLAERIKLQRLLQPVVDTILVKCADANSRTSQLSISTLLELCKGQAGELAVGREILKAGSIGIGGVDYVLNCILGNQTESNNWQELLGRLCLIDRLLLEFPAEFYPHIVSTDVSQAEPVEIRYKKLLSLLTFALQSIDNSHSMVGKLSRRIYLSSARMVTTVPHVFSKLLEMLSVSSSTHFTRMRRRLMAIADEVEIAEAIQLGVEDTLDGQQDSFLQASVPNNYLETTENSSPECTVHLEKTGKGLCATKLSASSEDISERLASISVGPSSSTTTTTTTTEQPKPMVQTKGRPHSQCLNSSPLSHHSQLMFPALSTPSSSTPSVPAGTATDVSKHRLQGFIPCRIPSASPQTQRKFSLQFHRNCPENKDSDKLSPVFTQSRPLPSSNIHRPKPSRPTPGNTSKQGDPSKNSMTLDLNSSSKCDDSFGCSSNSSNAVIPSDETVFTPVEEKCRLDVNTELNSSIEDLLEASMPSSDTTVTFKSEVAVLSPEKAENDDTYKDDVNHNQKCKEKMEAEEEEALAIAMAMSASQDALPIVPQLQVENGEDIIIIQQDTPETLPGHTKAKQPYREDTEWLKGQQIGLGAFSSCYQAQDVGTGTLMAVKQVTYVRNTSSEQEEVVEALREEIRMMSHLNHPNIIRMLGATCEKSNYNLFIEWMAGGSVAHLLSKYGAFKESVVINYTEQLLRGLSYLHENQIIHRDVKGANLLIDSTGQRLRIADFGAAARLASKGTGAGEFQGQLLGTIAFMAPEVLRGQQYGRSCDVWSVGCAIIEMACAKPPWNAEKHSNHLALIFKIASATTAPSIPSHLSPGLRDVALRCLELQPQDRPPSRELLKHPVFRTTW

MAP3K13 (human) = MAP3K13 (human) (UniProt O43283)
MAPK4 (human) = MAPK4 (human) (UniProt P31152)
MAPK7 (human) = MAPK7 (human) (UniProt Q13164)
MAPK7 (human), sequence (Q13164 whole entry, looked up): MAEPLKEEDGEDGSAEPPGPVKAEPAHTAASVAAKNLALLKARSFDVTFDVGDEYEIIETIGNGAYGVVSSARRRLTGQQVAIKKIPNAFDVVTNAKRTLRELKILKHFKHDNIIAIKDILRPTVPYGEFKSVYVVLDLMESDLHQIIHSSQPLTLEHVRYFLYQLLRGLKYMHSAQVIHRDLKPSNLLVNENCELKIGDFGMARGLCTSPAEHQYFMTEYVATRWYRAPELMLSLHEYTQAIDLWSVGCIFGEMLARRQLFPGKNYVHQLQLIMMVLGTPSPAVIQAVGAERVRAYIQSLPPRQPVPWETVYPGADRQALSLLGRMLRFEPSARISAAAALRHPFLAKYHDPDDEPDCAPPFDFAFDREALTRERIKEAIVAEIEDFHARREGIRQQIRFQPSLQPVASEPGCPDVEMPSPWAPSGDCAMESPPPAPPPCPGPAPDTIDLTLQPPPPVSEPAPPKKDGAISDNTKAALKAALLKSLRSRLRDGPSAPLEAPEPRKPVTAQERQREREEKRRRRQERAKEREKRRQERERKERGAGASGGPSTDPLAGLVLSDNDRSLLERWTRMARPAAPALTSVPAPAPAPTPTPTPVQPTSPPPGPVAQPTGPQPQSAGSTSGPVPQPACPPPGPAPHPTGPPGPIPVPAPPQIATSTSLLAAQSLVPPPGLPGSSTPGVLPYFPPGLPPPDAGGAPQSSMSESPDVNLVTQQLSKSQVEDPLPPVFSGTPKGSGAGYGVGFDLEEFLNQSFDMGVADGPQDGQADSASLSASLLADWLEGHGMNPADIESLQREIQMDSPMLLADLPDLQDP

MAPKAPK2 (human) = MAPKAPK2 (human) (UniProt P49137)
MUSK (human) = MUSK (human) (UniProt O15146)
MYLK4 (human) = MYLK4 (human) (UniProt Q86YV6)
NIM1 (human) = NIM1 (human) (UniProt Q8IY84)
OXSR1 (human) = OXSR1 (human) (UniProt O95747)
OXSR1 (human), sequence (O95747 whole entry, looked up): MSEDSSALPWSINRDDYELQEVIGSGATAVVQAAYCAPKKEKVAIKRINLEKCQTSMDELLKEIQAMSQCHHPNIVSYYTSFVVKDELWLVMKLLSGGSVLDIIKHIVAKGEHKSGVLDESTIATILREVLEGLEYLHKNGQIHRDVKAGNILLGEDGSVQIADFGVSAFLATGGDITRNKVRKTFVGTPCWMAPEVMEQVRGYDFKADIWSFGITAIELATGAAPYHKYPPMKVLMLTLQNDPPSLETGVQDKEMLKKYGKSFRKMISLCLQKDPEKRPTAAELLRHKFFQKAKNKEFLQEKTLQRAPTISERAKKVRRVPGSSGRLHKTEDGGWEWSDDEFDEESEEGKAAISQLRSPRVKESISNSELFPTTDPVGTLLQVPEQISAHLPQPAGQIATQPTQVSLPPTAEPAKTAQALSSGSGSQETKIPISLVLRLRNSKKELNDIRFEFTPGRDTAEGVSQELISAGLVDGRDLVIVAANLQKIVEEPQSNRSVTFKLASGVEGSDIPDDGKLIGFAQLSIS

PDPK1 (human) = PDPK1 (human) (UniProt O15530)
PHKG1 (human) = PHKG1 (human) (UniProt Q16816)
PHKG2 (human) = PHKG2 (human) (UniProt P15735)
PIK3C2G (human) = PIK3C2G (human) (UniProt O75747)
[2] = tested on: PIK3CA (human), P42336 [Q546K]
PKN1 (human) = PKN1 (human) (UniProt Q16512)
PKN1 (human), sequence (Q16512 whole entry, looked up): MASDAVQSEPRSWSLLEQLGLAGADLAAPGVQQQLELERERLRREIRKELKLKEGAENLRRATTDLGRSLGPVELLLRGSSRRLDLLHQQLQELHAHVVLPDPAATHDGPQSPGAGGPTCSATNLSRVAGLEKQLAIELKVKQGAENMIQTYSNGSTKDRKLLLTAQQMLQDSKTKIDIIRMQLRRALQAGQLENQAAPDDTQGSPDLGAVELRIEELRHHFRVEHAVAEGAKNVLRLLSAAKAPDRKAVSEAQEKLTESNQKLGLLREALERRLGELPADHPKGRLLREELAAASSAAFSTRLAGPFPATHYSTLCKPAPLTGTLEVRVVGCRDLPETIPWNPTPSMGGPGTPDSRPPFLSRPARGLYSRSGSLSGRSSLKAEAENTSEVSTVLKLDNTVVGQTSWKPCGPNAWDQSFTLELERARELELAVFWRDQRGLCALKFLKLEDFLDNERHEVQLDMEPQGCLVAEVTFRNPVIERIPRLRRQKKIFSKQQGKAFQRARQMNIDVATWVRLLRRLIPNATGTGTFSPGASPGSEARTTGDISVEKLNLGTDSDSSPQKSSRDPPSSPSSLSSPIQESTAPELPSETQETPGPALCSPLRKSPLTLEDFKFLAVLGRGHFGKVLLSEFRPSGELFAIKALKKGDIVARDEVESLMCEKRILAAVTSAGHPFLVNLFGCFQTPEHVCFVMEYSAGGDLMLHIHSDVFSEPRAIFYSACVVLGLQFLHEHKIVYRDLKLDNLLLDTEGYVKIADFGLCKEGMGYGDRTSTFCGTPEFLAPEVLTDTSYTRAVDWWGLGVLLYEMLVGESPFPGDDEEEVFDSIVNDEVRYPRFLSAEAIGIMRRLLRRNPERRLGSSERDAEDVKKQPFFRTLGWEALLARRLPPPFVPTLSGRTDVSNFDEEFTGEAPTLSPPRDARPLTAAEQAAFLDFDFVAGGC

PLK4 (human) = PLK4 (human) (UniProt O00444)
RPS6KA1 KD2 (human) = RPS6KA1 KD2 (human) (UniProt Q15418)
STK24 (human) = STK24 (human) (UniProt Q9Y6E0)
STK32B (human) = STK32B (human) (UniProt Q9NY57)
STK35 (human) = STK35 (human) (UniProt Q8TDR2)
TEK (human) = TEK (human) (UniProt Q02763)
TGFBR2 (human) = TGFBR2 (human) (UniProt P37173)
TLK1 (human) = TLK1 (human) (UniProt Q9UKI8)
[3] = target: TYK2 JH2 pseudokinase (human) (UniProt P29597)
TYK2 JH2 pseudokinase (human), sequence (P29597 whole entry, looked up): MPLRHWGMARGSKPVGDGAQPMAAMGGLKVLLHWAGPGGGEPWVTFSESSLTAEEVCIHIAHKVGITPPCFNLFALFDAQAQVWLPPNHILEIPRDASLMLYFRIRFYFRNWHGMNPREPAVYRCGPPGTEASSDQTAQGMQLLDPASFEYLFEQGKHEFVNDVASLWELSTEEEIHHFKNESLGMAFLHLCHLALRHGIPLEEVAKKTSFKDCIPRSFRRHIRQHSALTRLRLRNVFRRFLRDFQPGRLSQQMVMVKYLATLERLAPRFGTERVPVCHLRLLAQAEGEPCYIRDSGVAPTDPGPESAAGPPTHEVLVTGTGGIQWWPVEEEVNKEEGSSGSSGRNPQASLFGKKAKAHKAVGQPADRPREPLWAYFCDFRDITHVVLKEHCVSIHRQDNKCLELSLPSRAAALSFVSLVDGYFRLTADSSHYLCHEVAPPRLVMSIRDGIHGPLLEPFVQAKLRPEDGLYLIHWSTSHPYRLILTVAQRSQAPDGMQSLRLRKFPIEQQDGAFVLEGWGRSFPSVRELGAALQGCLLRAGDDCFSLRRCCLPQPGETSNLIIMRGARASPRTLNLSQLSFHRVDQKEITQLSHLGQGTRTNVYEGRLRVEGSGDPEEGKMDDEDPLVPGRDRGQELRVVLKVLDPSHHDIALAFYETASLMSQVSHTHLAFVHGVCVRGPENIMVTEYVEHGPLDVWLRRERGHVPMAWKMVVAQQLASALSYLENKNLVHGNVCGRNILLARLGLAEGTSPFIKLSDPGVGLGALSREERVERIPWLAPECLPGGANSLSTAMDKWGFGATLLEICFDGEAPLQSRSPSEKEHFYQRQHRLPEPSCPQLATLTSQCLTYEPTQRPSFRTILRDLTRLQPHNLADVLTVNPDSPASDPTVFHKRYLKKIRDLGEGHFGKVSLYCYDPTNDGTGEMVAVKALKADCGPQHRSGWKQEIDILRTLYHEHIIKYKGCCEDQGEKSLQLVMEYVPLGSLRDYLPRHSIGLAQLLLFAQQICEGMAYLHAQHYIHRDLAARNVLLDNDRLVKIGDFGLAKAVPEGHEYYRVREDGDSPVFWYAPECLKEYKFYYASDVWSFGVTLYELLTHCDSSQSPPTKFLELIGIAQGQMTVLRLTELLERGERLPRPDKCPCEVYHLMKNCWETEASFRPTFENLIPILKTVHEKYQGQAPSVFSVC

VRK2 (human) = VRK2 (human) (UniProt Q86Y07)
WEE2 (human) = WEE2 (human) (UniProt P0C1S8)

SMILES: CCC(=O)N1CCN(c2ccc(-n3c(=O)ccc4cnc5ccc(-c6cnc7ccccc7c6)cc5c43)cc2C(F)(F)F)CC1
- kinase still bound, per cent of control (CASK (human)): 100%
- per cent of control (CDK13 (human)): 80%
- kinase still bound, per cent of control (CHUK (human)): 41%
- kinase still bound, per cent of control (CRK2 (P.falciparum)): 97%
- kinase still bound, per cent of control (CSNK1E (human)): 59%
- kinase still bound, per cent of control (CSNK2A1 (human)): 94%
- kinase still bound, per cent of control (EPHB1 (human)): 100%
- kinase still bound, per cent of control [1]: 16%
- kinase still bound, per cent of control (GRK4 (human)): 90%
- kinase still bound, per cent of control (HIPK1 (human)): 63%
- kinase still bound, per cent of control (IRAK4 (human)): 90%
- kinase still bound, per cent of control (ITK (human)): 100%
- kinase still bound, per cent of control (LRRK2 (human)): 81%
- kinase still bound, per cent of control (LYN (human)): 79%
- kinase still bound, per cent of control (MAP2K6 (human)): 100%
- kinase still bound, per cent of control (MAP3K1 (human)): 92%
- kinase still bound, per cent of control (MAP3K13 (human)): 100%
- kinase still bound, per cent of control (MAPK4 (human)): 80%
- kinase still bound, per cent of control (MAPK7 (human)): 100%
- kinase still bound, per cent of control (MAPKAPK2 (human)): 100%
- kinase still bound, per cent of control (MUSK (human)): 100%
- kinase still bound, per cent of control (MYLK4 (human)): 83%
- kinase still bound, per cent of control (NIM1 (human)): 84%
- kinase still bound, per cent of control (OXSR1 (human)): 100%
- kinase still bound, per cent of control (PDPK1 (human)): 100%
- kinase still bound, per cent of control (PHKG1 (human)): 100%
- kinase still bound, per cent of control (PHKG2 (human)): 100%
- kinase still bound, per cent of control (PIK3C2G (human)): 11%
- kinase still bound, per cent of control [2]: 6.8%
- kinase still bound, per cent of control (PKN1 (human)): 92%
- kinase still bound, per cent of control (PLK4 (human)): 100%
- kinase still bound, per cent of control (RPS6KA1 KD2 (human)): 100%
- kinase still bound, per cent of control (STK24 (human)): 100%
- kinase still bound, per cent of control (STK32B (human)): 87%
- kinase still bound, per cent of control (STK35 (human)): 18%
- kinase still bound, per cent of control (TEK (human)): 19%
- kinase still bound, per cent of control (TGFBR2 (human)): 77%
- kinase still bound, per cent of control (TLK1 (human)): 100%
- kinase still bound, per cent of control [3]: 55%
- kinase still bound, per cent of control (VRK2 (human)): 100%
- kinase still bound, per cent of control (WEE2 (human)): 100%

SMILES: CC(C)n1nc(-c2cc3cc(O)ccc3[nH]2)c2c(N)ncnc21
- per cent of control (CDK13 (human)): 100%
- kinase still bound, per cent of control (CHUK (human)): 41%
- kinase still bound, per cent of control (CRK2 (P.falciparum)): 93%
- kinase still bound, per cent of control (CSNK1E (human)): 0.1%
- kinase still bound, per cent of control (CSNK2A1 (human)): 16%
- kinase still bound, per cent of control (EPHB1 (human)): 49%
- kinase still bound, per cent of control [1]: 7%
- kinase still bound, per cent of control (GRK4 (human)): 83%
- kinase still bound, per cent of control (HIPK1 (human)): 1.9%
- kinase still bound, per cent of control (IRAK4 (human)): 44%
- kinase still bound, per cent of control (ITK (human)): 100%
- kinase still bound, per cent of control (LRRK2 (human)): 4.8%
- kinase still bound, per cent of control (LYN (human)): 12%
- kinase still bound, per cent of control (MAP2K6 (human)): 70%
- kinase still bound, per cent of control (MAP3K1 (human)): 45%
- kinase still bound, per cent of control (MAP3K13 (human)): 100%
- kinase still bound, per cent of control (MAPK4 (human)): 75%
- kinase still bound, per cent of control (MAPK7 (human)): 100%
- kinase still bound, per cent of control (MAPKAPK2 (human)): 100%
- kinase still bound, per cent of control (MUSK (human)): 100%
- kinase still bound, per cent of control (MYLK4 (human)): 43%
- kinase still bound, per cent of control (NIM1 (human)): 88%
- kinase still bound, per cent of control (OXSR1 (human)): 80%
- kinase still bound, per cent of control (PDPK1 (human)): 96%
- kinase still bound, per cent of control (PHKG1 (human)): 50%
- kinase still bound, per cent of control (PHKG2 (human)): 12%
- kinase still bound, per cent of control (PIK3C2G (human)): 3.4%
- kinase still bound, per cent of control (PKN1 (human)): 85%
- kinase still bound, per cent of control (PLK4 (human)): 2.6%
- kinase still bound, per cent of control (RPS6KA1 KD2 (human)): 46%
- kinase still bound, per cent of control (STK24 (human)): 67%
- kinase still bound, per cent of control (STK32B (human)): 8.2%
- kinase still bound, per cent of control (TEK (human)): 21%
- kinase still bound, per cent of control (TGFBR2 (human)): 2.8%
- kinase still bound, per cent of control (TLK1 (human)): 75%
- kinase still bound, per cent of control [3]: 2.6%
- kinase still bound, per cent of control (VRK2 (human)): 100%
- kinase still bound, per cent of control (WEE2 (human)): 100%

SMILES: COC(=O)Nc1ccc(-c2nc(N3CCOCC3)c3cnn(C4CCN(C(=O)OC)CC4)c3n2)cc1
- kinase still bound, per cent of control (CASK (human)): 100%
- per cent of control (CDK13 (human)): 100%
- kinase still bound, per cent of control (CHUK (human)): 63%
- kinase still bound, per cent of control (CRK2 (P.falciparum)): 95%
- kinase still bound, per cent of control (CSNK1E (human)): 72%
- kinase still bound, per cent of control (CSNK2A1 (human)): 62%
- kinase still bound, per cent of control (EPHB1 (human)): 100%
- kinase still bound, per cent of control [1]: 100%
- kinase still bound, per cent of control (GRK4 (human)): 100%
- kinase still bound, per cent of control (HIPK1 (human)): 57%
- kinase still bound, per cent of control (IRAK4 (human)): 82%
- kinase still bound, per cent of control (ITK (human)): 91%
- kinase still bound, per cent of control (LRRK2 (human)): 91%
- kinase still bound, per cent of control (LYN (human)): 92%
- kinase still bound, per cent of control (MAP2K6 (human)): 90%
- kinase still bound, per cent of control (MAP3K1 (human)): 94%
- kinase still bound, per cent of control (MAP3K13 (human)): 100%
- kinase still bound, per cent of control (MAPK4 (human)): 68%
- kinase still bound, per cent of control (MAPK7 (human)): 100%
- kinase still bound, per cent of control (MAPKAPK2 (human)): 100%
- kinase still bound, per cent of control (MUSK (human)): 100%
- kinase still bound, per cent of control (MYLK4 (human)): 99%
- kinase still bound, per cent of control (NIM1 (human)): 100%
- kinase still bound, per cent of control (OXSR1 (human)): 90%
- kinase still bound, per cent of control (PDPK1 (human)): 85%
- kinase still bound, per cent of control (PHKG1 (human)): 81%
- kinase still bound, per cent of control (PHKG2 (human)): 86%
- kinase still bound, per cent of control (PIK3C2G (human)): 24%
- kinase still bound, per cent of control [2]: 6.8%
- kinase still bound, per cent of control (PKN1 (human)): 97%
- kinase still bound, per cent of control (PLK4 (human)): 100%
- kinase still bound, per cent of control (RPS6KA1 KD2 (human)): 100%
- kinase still bound, per cent of control (STK24 (human)): 100%
- kinase still bound, per cent of control (STK32B (human)): 100%
- kinase still bound, per cent of control (STK35 (human)): 91%
- kinase still bound, per cent of control (TEK (human)): 100%
- kinase still bound, per cent of control (TGFBR2 (human)): 78%
- kinase still bound, per cent of control (TLK1 (human)): 91%
- kinase still bound, per cent of control [3]: 78%
- kinase still bound, per cent of control (VRK2 (human)): 100%
- kinase still bound, per cent of control (WEE2 (human)): 95%
